Data published in patent publication US11952349B2, “Anti-cancer nuclear hormone receptor-targeting compounds” (Nuvation Bio Inc., priority 2019, dated 2024).
Where two headings read alike, the source gives them in different places.

Assays:
[1] = tested on: LNCap cells; assay: Cell viability assay (CellTiterGlo, 6 days) LNCap; type: cell-based; details: Homo sapiens, 144 h
Experimental: Cell viability assay: LNCap, 22Rv1, and T47D cells were seeded at a density of 1500-2000 cells/well in 96 well plates, and a ‘T0’ (timepoint 0) was included along with the assay plate. The plates were then incubated at 37° C., 5% CO2 in a cell culture incubator overnight. On the next day, the ‘T0’ plate was assayed using CellTiterGlo (Promega, Inc) according to the manufacturer's instructions. The appropriate compounds were diluted in DMSO and added to the assay plate (final DMSO concentration of 0.2%) on the next day. The assay plates were incubated for 6 days at 37° C., 5% CO2. After the incubation period, the plates were assayed using CellTiterGlo (Promega, Inc) according to the manufacturer's instructions and luminescence was read on the EnVision plate reader. Inhibition the tested compounds was determined by the following formula: Inhibition rate (%)=(1−(RLU compound−RLU day0)/(RLU control−RLU day0))*100%. GraphPadPrism was used to analyze the data and determine absolute IC50 values.

[2] = molecular target: T1, AR, cytosol from LnCaP cells (Homo sapiens, UniProt P10275, T878A); assay: AR binding assay, 3H-R1881 (Biological Example 2)
T1 construct: AR in LNCaP cytosol was used; endogenous in cells; host or cells: LNCaP cells (cytosol)
T1 sequence (P10275 1-920 T878A): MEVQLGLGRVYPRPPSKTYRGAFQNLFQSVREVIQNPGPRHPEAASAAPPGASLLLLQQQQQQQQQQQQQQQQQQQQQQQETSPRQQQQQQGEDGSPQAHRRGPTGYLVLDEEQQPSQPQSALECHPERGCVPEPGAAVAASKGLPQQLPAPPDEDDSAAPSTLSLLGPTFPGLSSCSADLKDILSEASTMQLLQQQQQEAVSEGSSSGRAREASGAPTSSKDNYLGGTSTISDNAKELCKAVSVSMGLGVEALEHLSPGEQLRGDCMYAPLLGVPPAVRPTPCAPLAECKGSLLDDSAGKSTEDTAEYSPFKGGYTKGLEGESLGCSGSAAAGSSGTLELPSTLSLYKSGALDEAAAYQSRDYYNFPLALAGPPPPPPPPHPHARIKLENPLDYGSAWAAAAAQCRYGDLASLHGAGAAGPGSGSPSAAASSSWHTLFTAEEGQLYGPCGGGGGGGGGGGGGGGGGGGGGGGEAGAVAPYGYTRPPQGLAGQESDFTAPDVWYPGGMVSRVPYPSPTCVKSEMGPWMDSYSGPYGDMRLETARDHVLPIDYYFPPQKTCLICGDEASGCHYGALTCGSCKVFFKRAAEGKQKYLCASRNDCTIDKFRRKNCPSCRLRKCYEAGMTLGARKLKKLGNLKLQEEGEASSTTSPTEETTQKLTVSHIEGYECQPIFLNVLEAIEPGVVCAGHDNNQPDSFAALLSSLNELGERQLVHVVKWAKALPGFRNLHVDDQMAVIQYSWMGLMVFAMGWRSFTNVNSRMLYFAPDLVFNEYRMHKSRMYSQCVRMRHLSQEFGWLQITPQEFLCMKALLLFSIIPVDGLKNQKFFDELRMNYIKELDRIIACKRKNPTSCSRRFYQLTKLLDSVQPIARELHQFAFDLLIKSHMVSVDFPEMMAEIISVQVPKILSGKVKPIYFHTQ
Experimental: AR binding assay: To assess AR binding, test compound (top dose […], 4 fold serial dilution, 8 point dose response) and control (progesterone) were transferred to the assay plate. Cytosol from LnCaP cells was added to the plate, followed by addition of radiolabeled ^3H-R1881 at a final concentration of 1 nM. The plate was sealed, and the reaction was incubated at 300 rpm at 4° C. for 24 hrs. Radioligand absorption buffer (10 mM Tris-HCl, pH 7.4; 1.5 mM EDTA; 1 mM DTT; 0.25% charcoal; 0.0025% dextran) was then added to the plate, mixed, and incubated at 4° C. for 15 minutes. The plate was then centrifuged at 3000 rpm for 30 minutes at 4° C. The supernatant was transferred to the scint-tube and Tri-carb was used for scintillation counting. The data was analyzed using GraphPadPrism v5.0 and binding IC50 was determined as the concentration where 50% inhibition of radioligand binding was observed.

[3] = Table 8, 3H-R1881 1 nM, read-out: AR binding

Row | IC50 ([1]; Table 8) [µM] | IC50 [2, 3] [µM] | Compound | IC50 ([1]; Table 7) [µM] | IC50 [2] [µM] | IC50 ([2]; Table 7, 3H-R1881 1 nM, read-out: AR binding) [µM]
1 | – | – | C[C@@]12CCC(=O)C[C@H]1CC[C@H]1[C@H]2CC[C@]2(C)[C@@H]1CC[C@H]2OCCCCCCNC(=O)c1cc(Cc2n[nH]c(=O)c3ccccc23)ccc1F (stereo in doubt) [Compound 1426, N-(6-((5R,8S,9R,10R,13R,14R,17R)-10,13-dimethyl-3-oxohexadecahydro-1H-cyclopenta[a]phenanthren-17-yloxy)hexyl)-2-fluoro-5-((4-oxo-3,4-dihydrophthalazin-1-yl)methyl)benzamide] | 1 to 10 | 0.1 to 1 | –
2 | 0.1 to 1 | 0.01 to 0.1 | CC#C[C@]1(O)CC[C@H]2[C@@H]3CCC4=CC(=O)CCC4=C3[C@@H](c3ccc(N(C)CCCCCC(=O)N4CCN(C(=O)c5cc(Cc6n[nH]c(=O)c7ccccc67)ccc5F)CC4)cc3)C[C@@]21C [Compound 135, 4-(4-fluoro-3-(4-(6-((4-((8S,11R,13S,14S,17S)-17-hydroxy-13-methyl-3-oxo-17-(prop-1-ynyl)-2,3,6,7,8,11,12,13,14,15,16,17-dodecahydro-1H-cyclopenta[a]phenanthren-11-yl)phenyl)(methyl)amino)hexanoyl)piperazine-1-carbonyl)benzyl)phthalazin-1(2H)-one] | – | – | –
3 | – | – | C[C@]12C[C@H](CCCCCC(=O)N3CCN(C(=O)c4cc(Cc5n[nH]c(=O)c6ccccc56)ccc4F)CC3)C3=C4CCC(=O)C=C4CC[C@H]3[C@@H]1CCC2O (stereo partly drawn) [Compound 138, 4-(4-fluoro-3-(4-(6-((8S,11S,13S,14S)-17-hydroxy-13-methyl-3-oxo-2,3,6,7,8,11,12,13,14,15,16,17-dodecahydro-1H-cyclopenta[a]phenanthren-11-yl)hexanoyl)piperazine-1-carbonyl)benzyl)phthalazin-1(2H)-one] | 0.1 to 1 | 0.01 to 0.1 | –
4 | – | – | Cn1ncnc1C1c2n[nH]c(=O)c3cc(F)cc(c23)N[C@@H]1c1ccc(NC(=O)CCCCCO[C@@H]2CC[C@H]3[C@@H]4CC[C@H]5CCCC[C@]5(C)[C@H]4CC[C@]23C)cc1 (stereo partly drawn) [Compound 1128, 6-((5R,8R,9S,10S,13S,14S,17R)-10,13-dimethylhexadecahydro-1H-cyclopenta[a]phenanthren-17-yloxy)-N-(4-((8S)-5-fluoro-9-(1-methyl-1H-1,2,4-triazol-5-yl)-3-oxo-3,7,8,9-tetrahydro-2H-pyrido[4,3,2-de]phthalazin-8-yl)phenyl)hexanamide] | 0.1 to 1 | – | 1 to 10
5 | 0.1 to 1 | < 0.01 | CC(=O)O[C@]1(C(C)=O)CC[C@H]2[C@@H]3CCC4=CC(=O)CCC4=C3[C@@H](c3ccc(N(C)CCCCCC(=O)N4CCN(C(=O)c5cc(Cc6n[nH]c(=O)c7ccccc67)ccc5F)CC4)cc3)C[C@@]21C [Compound 1378, (8S,11R,13S,14S,17R)-17-acetyl-11-(4-((6-(4-(2-fluoro-5-((4-oxo-3,4-dihydrophthalazin-1-yl)methyl)benzoyl)piperazin-1-yl)-6-oxohexyl)(methyl)amino)phenyl)-13-methyl-3-oxo-2,3,6,7,8,11,12,13,14,15,16,17-dodecahydro-1H-cyclopenta[a]phenanthren-17-yl acetate] | – | – | –
6 | 1 to 10 | < 0.01 | CC(=O)O[C@]1(C(C)=O)CC[C@H]2[C@@H]3CCC4=CC(=O)CCC4=C3[C@@H](c3ccc(N(C)CCCCCC(=O)NCCOCCOCC(=O)N4CCN(C(=O)c5cc(Cc6n[nH]c(=O)c7ccccc67)ccc5F)CC4)cc3)C[C@@]21C [Compound 1384, (8S,11R,13S,14S,17R)-17-acetyl-11-(4-((6-(2-(2-(2-(4-(2-fluoro-5-((4-oxo-3,4-dihydrophthalazin-1-yl)methyl)benzoyl)piperazin-1-yl)-2-oxoethoxy)ethoxy)ethylamino)-6-oxohexyl)(methyl)amino)phenyl)-13-methyl-3-oxo-2,3,6,7,8,11,12,13,14,15,16,17-dodecahydro-1H-cyclopenta[a]phenanthren-17-yl acetate] | – | – | –
7 | – | – | C[C@]12Cc3cn[nH]c3C[C@@H]1CC[C@@H]1[C@@H]2CC[C@]2(C)[C@@H](OCCCCCC(=O)N3CCN(C(=O)c4cc(Cc5n[nH]c(=O)c6ccccc56)ccc4F)CC3)CC[C@@H]12 [Compound 1394, 4-(3-(4-(6-(((1S,3aS,3bR,5aS,10aS,10bS,12aS)-10a,12a-dimethyl-1,2,3,3a,3b,4,5,5a,6,7,10,10a,10b,11,12,12a-hexadecahydrocyclopenta[5,6]naphtho[1,2-f]indazol-1-yl)oxy)hexanoyl)piperazine-1-carbonyl)-4-fluorobenzyl)phthalazin-1(2H)-one] | 0.1 to 1 | 0.1 to 1 | –
8 | > 10 | 0.01 to 0.1 | CC#C[C@]1(O)CC[C@H]2[C@@H]3CCC4=CC(=O)CCC4=C3[C@@H](c3ccc(N(C)CCCCCC(=O)NCCOCCOCC(=O)N4CCN(C(=O)c5cc(Cc6n[nH]c(=O)c7ccccc67)ccc5F)CC4)cc3)C[C@@]21C [Compound 1429, N-(2-(2-(2-(4-(2-fluoro-5-((4-oxo-3,4-dihydrophthalazin-1-yl)methyl)benzoyl)piperazin-1-yl)-2-oxoethoxy)ethoxy)ethyl)-6-((4-((8S,11R,13S,14S,17S)-17-hydroxy-13-methyl-3-oxo-17-(prop-1-ynyl)-2,3,6,7,8,11,12,13,14,15,16,17-dodecahydro-1H-cyclopenta[a]phenanthren-11-yl)phenyl)(methyl)amino)hexanamide] | – | – | –

Row | Compound | IC50 ([1]; Table 8) [µM] | IC50 [2, 3] [µM] | IC50 ([1]; Table 7) [µM] | IC50 [2] [µM] | IC50 ([2]; Table 7, 3H-R1881 1 nM, read-out: AR binding) [µM]
9 | C[C@]12CC[C@H]3[C@@H](CCC4=CC(=O)CC[C@@]43C)[C@@H]1CC[C@@H]2C(=O)COCCCCCC(=O)N1CCN(C(=O)c2cc(Cc3n[nH]c(=O)c4ccccc34)ccc2F)CC1 [Compound 1386, 4-(3-(4-(6-(2-((8S,9S,10R,13S,14S,17S)-10,13-dimethyl-3-oxo-2,3,6,7,8,9,10,11,12,13,14,15,16,17-tetradecahydro-1H-cyclopenta[a]phenanthren-17-yl)-2-oxoethoxy)hexanoyl)piperazine-1-carbonyl)-4-fluorobenzyl)phthalazin-1(2H)-one] | 0.1 to 1 | 0.01 to 0.1 | – | – | –
